Experimental data taken from US7833967B2, “Synthetic antimicrobial polypeptides” (priority 2003, dated 2010).

System: E. coli TOP10
Test: Suicide expression system (SES) growth inhibition
Format: cell-based
Conditions: Table 4; variants of SEQ ID NO:10, re-tested in the Bioscreen C

Substance | Growth inhibition (%)
66 (RRRPFRPPFRPPFRPPIRPPLRPPIRP; Synthetic antimicrobial peptide) [compound 66] | 76
67 (RRRPLRPPLRPPIRPPFRPPVRPPFRP; Synthetic antimicrobial peptide) [compound 67] | 80
68 (RRRPIRPPFRPPFRPPLRPPVRPPFRP; Synthetic antimicrobial peptide) [compound 68] | 78
69 (RRRPIRPPFRPPFRPPLRPPFRPPIRP; Synthetic antimicrobial peptide) [compound 69] | 75
70 (RRRPLRPPLRPPFRPPIRPPLRPPFRP; Synthetic antimicrobial peptide) [compound 70] | 76
71 (RRRPLRPPIRPPFRPPIRPPFRPPFRP; Synthetic antimicrobial peptide) [compound 71] | 82
72 (RRRPIRPPFRPPFRPPFRPPFRPPFRP; Synthetic antimicrobial peptide) [compound 72] | 49
73 (RRRPFRPPVRPPFRPPVRPPIRPPVRP; Synthetic antimicrobial peptide) [compound 73] | 65
74 (RRRPFRPPVRPPFRPPFRPPIRPPIRP; Synthetic antimicrobial peptide) [compound 74] | 76
75 (RRRPFRPPIRPPVRPPFRPPFRPPFRP; Synthetic antimicrobial peptide) [compound 75] | 79
76 (RRRPIRPPFRPPIRPPVRPPFRPPIRP; Synthetic antimicrobial peptide) [compound 76] | 86
77 (RRRPFRPPFRPPIRPPVRPPFRPPFRP; Synthetic antimicrobial peptide) [compound 77] | 72
78 (RRRPLRPPFRPPFRPPFRPPIRPPVRP; Synthetic antimicrobial peptide) [compound 78] | 83
79 (RRRPFRPPFRPPFRPPVRPPVRPPFRP; Synthetic antimicrobial peptide) [compound 79] | 82
80 (RRRPFRPPFRPPIRPPVRPPVRPPFRP; Synthetic antimicrobial peptide) [compound 80] | 81
81 (RRRPFRPPIRPPFRPPFRPPVRPPIRP; Synthetic antimicrobial peptide) [compound 81] | 80
82 (RRRPIRPPFRPPVRPPFRPPFRPPFRP; Synthetic antimicrobial peptide) [compound 82] | 71
83 (RRRPLRPPFRPPIRPPVRPPFRPPVRP; Synthetic antimicrobial peptide) [compound 83] | 72
84 (RRRPIRPPLRPPIRPPFRPPFRPPLRP; Synthetic antimicrobial peptide) [compound 84] | 80
85 (RRRPFRPPIRPPIRPPFRPPFRPPIRP; Synthetic antimicrobial peptide) [compound 85] | 67
86 (RRRPIRPPFRPPLRPPLRPPVRPPFRP; Synthetic antimicrobial peptide) [compound 86] | 74
87 (RRRPFRPPFRPPIRPPFRPPVRPPVRP; Synthetic antimicrobial peptide) [compound 87] | 80

Substance | Growth inhibition (%)
88 (RRRPFRPPLRPPLRPPVRPPVRPPFRP; Synthetic antimicrobial peptide) [compound 88] | 82
89 (RRRPFRPPFRPPFRPPVRPPVRPPLRP; Synthetic antimicrobial peptide) [compound 89] | 70
90 (RRRPFRPPIRPPFRPPFRPPVRPPFRP; Synthetic antimicrobial peptide) [compound 90] | 74
91 (RRRPFRPPVRPPIRPPVRPPFRPPVRP; Synthetic antimicrobial peptide) [compound 91] | 52
92 (RRRPVRPPIRPPFRPPFRPPFRPPFRP; Synthetic antimicrobial peptide) [compound 92] | 85
93 (RRRPFRPPFRPPFRPPVRPPLRPPIRP; Synthetic antimicrobial peptide) [compound 93] | 61
94 (RRRPFRPPVRPPIRPPVRPPFRPPFRP; Synthetic antimicrobial peptide) [compound 94] | 77
95 (RRRPFRPPLRPPLRPPIRPPVRPPFRP; Synthetic antimicrobial peptide) [compound 95] | 80
96 (RRRPFRPPIRPPFRPPIRPPLRPPIRP; Synthetic antimicrobial peptide) [compound 96] | 71
97 (RRRPLRPPFRPPFRPPLRPPFRPPIRP; Synthetic antimicrobial peptide) [compound 97] | 69
98 (RRRPFRPPFRPPVRPPIRPPLRPPFRP; Synthetic antimicrobial peptide) [compound 98] | 63
99 (RRRPFRPPIRPPIRPPFRPPIRPPFRP; Synthetic antimicrobial peptide) [compound 99] | 79
100 (RRRPIRPPFRPPFRPPFRPPFRPPFRP; Synthetic antimicrobial peptide) [compound 100] | 84
101 (RRRPIRPPFRPPLRPPFRPPIRPPIRP; Synthetic antimicrobial peptide) [compound 101] | 81
102 (RRRPIRPPFRPPIRPPFRPPLRPPFRP; Synthetic antimicrobial peptide) [compound 102] | 77
103 (RRRPLRPPIRPPIRPPVRPPFRPPIRP; Synthetic antimicrobial peptide) [compound 103] | 73
104 (RRRPFRPPFRPPIRPPFRPPFRPPLRP; Synthetic antimicrobial peptide) [compound 104] | 76
105 (RRRPIRPPLRPPLRPPFRPPFRPPFRP; Synthetic antimicrobial peptide) [compound 105] | 73
106 (RRRPFRPPFRPPFRPPIRPPIRPPLRP; Synthetic antimicrobial peptide) [compound 106] | 75
107 (RRRPFRPPFRPPVRPPFRPPIRPPFRP; Synthetic antimicrobial peptide) [compound 107] | 69
108 (RRRPLRPPFRPPIRPPVRPPVRPPFRP; Synthetic antimicrobial peptide) [compound 108] | 76
109 (RRRPFRPPIRPPVRPPLRPPVRPPFRP; Synthetic antimicrobial peptide) [compound 109] | 71

Substance | Growth inhibition (%)
110 (RRRPFRPPLRPPFRPPIRPPIRPPVRP; Synthetic antimicrobial peptide) [compound 110] | 73
111 (RRRPLRPPVRPPFRPPVRPPLRPPFRP; Synthetic antimicrobial peptide) [compound 111] | 59
112 (RRRPFRPPIRPPFRPPVRPPVRPPVRP; Synthetic antimicrobial peptide) [compound 112] | 69
113 (RRRPLRPPVRPPFRPPVRPPFRPPFRP; Synthetic antimicrobial peptide) [compound 113] | 75
114 (RRRPLRPPLRPPFRPPLRPPFRPPFRP; Synthetic antimicrobial peptide) [compound 114] | 74
115 (RRRPLRPPFRPPIRPPFRPPFRPPFRP; Synthetic antimicrobial peptide) [compound 115] | 79
116 (RRRPIRPPFRPPFRPPVRPPIRPPFRP; Synthetic antimicrobial peptide) [compound 116] | 69
117 (RRRPIRPPIRPPFRPPFRPPIRPPFRP; Synthetic antimicrobial peptide) [compound 117] | 77
118 (RRRPFRPPFRPPLRPPFRPPVRPPLRP; Synthetic antimicrobial peptide) [compound 118] | 73
119 (RRRPIRPPFRPPIRPPFRPPVRPPVRP; Synthetic antimicrobial peptide) [compound 119] | 69
120 (RRRPLRPPFRPPFRPPFRPPVRPPIRP; Synthetic antimicrobial peptide) [compound 120] | 68
121 (RRRPIRPPLRPPVRPPIRPPFRPPFRP; Synthetic antimicrobial peptide) [compound 121] | 65
122 (RRRPFRPPFRPPFRPPVRPPFRPPLRP; Synthetic antimicrobial peptide) [compound 122] | 64
123 (RRRPFRPPLRPPIRPPIRPPFRPPFRP; Synthetic antimicrobial peptide) [compound 123] | 65
124 (RRRPFRPPIRPPLRPPVRPPLRPPFRP; Synthetic antimicrobial peptide) [compound 124] | 73
125 (RRRPIRPPFRPPLRPPFRPPVRPPVRP; Synthetic antimicrobial peptide) [compound 125] | 73
126 (RRRPIRPPIRPPLRPPFRPPFRPPFRP; Synthetic antimicrobial peptide) [compound 126] | 77
127 (RRRPIRPPFRPPLRPPFRPPFRPPLRP; Synthetic antimicrobial peptide) [compound 127] | 67
128 (RRRPFRPPFRPPLRPPFRPPVRPPLRP; Synthetic antimicrobial peptide) [compound 128] | 69
129 (RRRPFRPPFRPPVRPPFRPPIRPPLRP; Synthetic antimicrobial peptide) [compound 129] | 69
130 (RRRPFRPPIRPPLRPPFRPPVRPPLRP; Synthetic antimicrobial peptide) [compound 130] | 78
131 (RRRPIRPPFRPPFRPPIRPPIRPPVRP; Synthetic antimicrobial peptide) [compound 131] | 75
